Test results: patent US11999697B2, “Methods and compositions for inhibition of dihydroorotate dehydrogenase” (OHIO STATE INNOVATION FOUNDATION, priority 2018, dated 2024)
Read-outs that look alike come from different tables or passages of the source.

Legend:
DHODH = target: T1, DHODH (Homo sapiens, UniProt Q02127); experiment: DHODH enzymatic assay (DCIP reduction); type: biochemical
T1 construct: made in house
Procedure: DHODH Enzymatic Assay: DHODH activity was determined at 25° C. following the reduction of 2,6-dichloroindophenol sodium salt (DCIP) at 600 nm (ε=18 800 M^−1 cm^−1) on a spectrophotometer. The reaction medium used contained 50 mM Tris-HCl, pH 8.0, 0.1% Triton X-100, 0.1 mM LDHO, 0.025 mM CoQ1, and 0.06 mM DCIP. The reaction was started by addition of the enzyme. The inhibitory potency of the compounds was evaluated by measuring the initial velocity of the reaction either in the absence or in the presence of the compounds at the indicated concentrations. The DHODH enzyme used was the recombinant human enzyme prepared as previously described (Helene Munier-Lehmann, et al., J. Med. Chem. 2015, 58:860-877).

HL-60 = experiment: MTS cell proliferation assay, HL-60; type: cell-based; conditions: Homo sapiens, 96 hours
Procedure: Triplicate wells were set up for each condition.
The assays were carried out in a blinded fashion.

primary human AML cells = experiment: Cytospin slides and Wright-Giemsa staining for differentiation; type: cell-based; conditions: 1 μM, 14 days
Procedure: Cytospin slides and Wright-Giemsa staining for differentiation: Primary AML cells were solubilized from the methocult in the CFU assays. 150-300K cells were immobilized onto microscope slides and stained with Wright-Giemsa stain. Differentiated myeloid cells were recognized by the typical morphological changes associated with early neutrophil differentiation including a characteristic multi-lobed or kidney bean shaped nucleus.
The primary AML cells following treatment with Cpd3 were analyzed by Wright-Giemsa stain. FIGS. 4A-4C show representative micrographs of primary human AML cells treated a representative disclosed compound, Cpd3, compared to a reference compound, brequinar, or vehicle treatment using methods as described herein below. Briefly, primary AML cells were treated with vehicle (DMSO), Cpd3 (1 μM) or brequinar (BQR, 1 μM) and plated in semi-solid methylcellulose-based media for 14 days. Cells were recovered from the methylcellulose and immobilized on glass slides and stained with a Wright-Giemsa stain (the more differentiated myeloid cells are indicated by the red arrows). The images are shown for vehicle treatment (FIG. 4A); Cpd3 treatment (FIG. 4B); and brequinar treatment (FIG. 4C). The primary human AML cells are from a representative patient sample. […]

[1] = test system: kinases (more than 480 kinase assays); experiment: DiscoverX KINOMEscan panel; type: binding; conditions: 1 μM and 10 μM
Source text: A representative disclosed compound, Cpd3, was screened for potential noncovalent binding interaction with kinases by screening a comprehensive panel in the DiscoverX KINOMEscan® platform (Eurofins DiscoverX Corporation, Fremont, Calif. 94538; e.g., see also Herman, S. E. M., et al., Clin Cancer Res; 23(11) Jun. 1, 2017). Panel allows for screening against more than 480 kinase assays including clinically relevant mutants, lipid, atypical, and pathogen kinases. The screening system provides for thermodynamic affinity data (as opposed to IC50s), and allows for detection of multiple inhibitor types, including type I, type II, and allosteric. […] It is notable that the upper limit tested in this screen is at least 10-fold greater than the observed in vitro IC50 for activity in the assays discussed above.

[2] = Pharmacokinetic study, oral dosing at different dose levels; type: in vivo, wild type B6 mice; conditions: for AUC(0-t) / Cmax / Tmax / half-life: B6, mouse, plasma, oral gavage; for AUC(0-t): po
Source text: LC-MS/MS Assay Materials: Acetonitrile and methanol were LC-MS grade (Fisher Scientific (Fair Lawn, N.J., USA). Other chemicals were as follows: formic Acid (98%, v/v in water; Fisher Scientific, Fair Lawn, N.J., USA); ammonium acetate (Sigma Aldrich Inc.); water: DDH2O obtained from a Millipore water system; and brequinar was obtained from Sigma. (>99% purity). Solvent A: 0.1% formic acid in water. Solvent B: 0.1% Formic Acid in methanol and acetonitrile. Internal Standard (“IS”) precipitation solution was 150 ng/ml internal standards in acetonitrile: water (3:1, v/v).
Sample preparation: To 10 μL plasma sample was added 100 μL of working IS solution and 20 μL MeOH. Samples were then vortexed for 30 seconds, followed by centrifugation (Eppendorf 5415 R centrifuge) at 10,000 rpm for 8 minutes at 4° C. Supernatant of each sample was transferred into an autosampler vial and sealed with rubber/Teflon crimp cap. Sample volume that was injected onto HPLC was 5 μL. The calibrations samples were prepared at a test compound concentration of 1000, 500, 250, 100, 50, 10, 5 ng/mL in mouse plasma. The quality control samples were as follows: QC1=750 ng/mL, OC2=75 ng/mL, QC3=25 ng/mL, LLOQ=5 ng/mL.
HPLC Parameters: Accucore Vanquish C18 column (100×2.1 mm, dp=1.5 μm) used in a Vanquish UHPLC system, using a XBridge® BEH C18, 5-μm guard column. Mobile phase: gradient as provided below in Table 8 below. Column temperature: 40° C.±5° C.; Autosampler temperature: 10° C.±5° C. Flow rate: 0.4 ml/min. run time: 5.0 min.
The mass spectrometer used was a TSQ Quantiva (Thermo Fisher Scientific).
FIGS. 14A-14C show representative pharmacokinetic data obtained following administration of a representative disclosed compound, Cpd3, via oral dosing at different dose levels carried out using the methods described herein below in Examples. Briefly, wild type B6 mice were administered a single dose of Cpd3 by oral gavage at increasing concentrations (10, 25, 50 and 75 mg/kg). Blood plasma was sampled at 15, 30 and 60 minutes, and 2, 6 and 24 hours.

[3] = test system: AML cell lines (MOLM13, MV4-11, THP1, HL-60, and OCI-AML3); experiment: cells; conditions: read-out: IC50 range for growth arrest in AML cell lines
Procedure: MTS assay for cell growth/viability: Mitochondrial activity was measured to determine cell proliferation using an MTS assay (tetrazolium dye 3′[4,5-dimethylthiazol-2-yl]-2,5-diphenyl-tetrazolium bromide). Metabolically active cells convert MTS tetrazolium salt into a purple formazan product that is soluble in tissue culture medium. The amount of formazan measured at 490 nm absorbance is proportional to the number of proliferating cells. […] Triplicate wells were set up for each condition. At 96 hours, the MTS reagent was added and after approximately 4 hours the plates were read in a spectrophotometer. MTS assays in primary AML cells were done in a similar manner as the cell lines with the following changes: 100K cells were plated per well, and the MTS was done in the presence of an HS5 stromal cell line to support the in vitro growth of the primary cells. Primary cells were incubated with MTS for approximately 8-12 hours (varies with the samples) before reading the absorbance.
Cell proliferation assays were carried out using the MTS assay described herein using five AML cell lines (i.e., MOLM13, MV4-11, THP1, HL-60, and OCI-AML3) with varied genetic backgrounds. The assays were carried out in a blinded fashion.

T1 sequence (Q02127 whole entry): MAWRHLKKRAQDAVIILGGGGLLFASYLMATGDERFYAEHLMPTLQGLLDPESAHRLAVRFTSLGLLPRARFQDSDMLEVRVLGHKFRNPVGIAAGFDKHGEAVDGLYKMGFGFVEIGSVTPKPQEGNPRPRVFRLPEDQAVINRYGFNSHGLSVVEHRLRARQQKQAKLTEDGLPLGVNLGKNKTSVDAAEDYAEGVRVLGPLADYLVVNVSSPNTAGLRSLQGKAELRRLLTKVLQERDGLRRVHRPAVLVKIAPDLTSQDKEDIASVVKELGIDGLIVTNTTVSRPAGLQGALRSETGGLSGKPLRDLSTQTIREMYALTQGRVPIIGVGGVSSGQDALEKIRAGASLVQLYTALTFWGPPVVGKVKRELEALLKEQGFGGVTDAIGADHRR

CCOc1ccc(-c2ccc(-c3cc(C(=O)O)c4cc(F)ccc4n3)cc2)cc1 [Cpd3, 2-(4′-ethoxy-[1,1′-biphenyl]-4-yl)-6-fluoroquinoline-4-carboxylic acid]
DHODH inhibition, % inhibition (DHODH; compound concentration not given): 97% | IC50 (DHODH; range in parentheses, read-out: DHODH inhibition, IC50): 43 nM | IC50 (HL-60): 0.28 µM | differentiation by Wright-Giemsa stain (primary human AML cells): induces differentiation in primary human AML cells | noncovalent binding interaction with kinases [1]: no apparent interactions with the screen targets | AUC(0-t) ([2]; 10 mg/kg, 10 mg/kg, read-out: AUC0-6): 47 ± 0.92 µg·h/mL | AUC(0-t) ([2]; 10 mg/kg, 10 mg/kg, read-out: AUC0-24): 66.7 ± 6.17 µg·h/mL | AUC(0-t) ([2]; 25 mg/kg, 25 mg/kg, read-out: AUC0-6): 101 ± 38 µg·h/mL | AUC(0-t) ([2]; 25 mg/kg, 25 mg/kg, read-out: AUC0-24): 171 ± 34.2 µg·h/mL | AUC(0-t) ([2]; 50 mg/kg, 50 mg/kg, read-out: AUC0-6): 333 ± 47.1 µg·h/mL | AUC(0-t) ([2]; 50 mg/kg, 50 mg/kg, read-out: AUC0-24): 480 ± 62.1 µg·h/mL | AUC(0-t) ([2]; 75 mg/kg, 75 mg/kg, read-out: AUC0-6): 531 ± 103 µg·h/mL | AUC(0-t) ([2]; 75 mg/kg, 75 mg/kg, read-out: AUC0-24): 786 ± 39.3 µg·h/mL | Cmax ([2]; 10 mg/kg): 18.6 ± 0.93 µg/mL | Tmax ([2]; 10 mg/kg): 0.83 ± 0.29 h | half-life ([2]; 10 mg/kg): 3.4 ± 0.3 h | Cmax ([2]; 25 mg/kg): 35.9 ± 12.5 µg/mL | Tmax ([2]; 25 mg/kg): 0.67 ± 0.29 h | half-life ([2]; 25 mg/kg): 6.05 ± 1.97 h | Cmax ([2]; 50 mg/kg): 93.2 ± 18 µg/mL | Tmax ([2]; 50 mg/kg): 0.67 ± 0.29 h | half-life ([2]; 50 mg/kg): 3.23 ± 0.77 h | Cmax ([2]; 75 mg/kg): 115 ± 8.99 µg/mL | Tmax ([2]; 75 mg/kg): 0.75 ± 0.35 h | half-life ([2]; 75 mg/kg): 2.76 ± 0.3 h | relationship between dose and exposure ([2]; oral gavage, 10, 25, 50 and 75 mg/kg): linear relationship between dose and exposure | IC50 [3]: 280 to 1100 nM
